≈ marks a conversion by molar mass, not a printed value. Where two headings read alike, the source gives them in different places.
Key:
Streptococci = test: Minimum inhibitory concentration, microdilution broth method, streptococci; type: cell-based; conditions: S. pneumo GC 1894; Mueller-Hinton broth with 5% horse blood, 18-22 hours at 35° C.
Description: (§1) Evaluation of the Minimum Inhibitory Concentration of Test Compounds Against A Variety of Bacterial Strains
(§2) In this evaluation the minimal inhibitory concentration (MIC) of test compounds against Gram positive and Gram negative bacteria is performed using the microdilution broth method as recommended by the National Committee for Clinical Laboratory Standards (Approved Standards M7-A5 2000). Mueller-Hinton broth is used for the enterobacteriaceae, staphylococci and enterococci. Streptococci are also tested in Mueller-Hinton broth supplemented with 5% horse blood (LHB). Test organisms include recent clinical isolates that are resistant to methicillin, penicillin and/or vancomycin. […].

staphylococci = test: Minimum inhibitory concentration, microdilution broth method, staphylococci; type: cell-based; conditions: Staphylococcus aureus, Mueller-Hinton broth, 18-22 hours at 35° C.
Description: as §1, §2

enterococci = test: Minimum inhibitory concentration, microdilution broth method, enterococci; type: cell-based; conditions: Enterococcus faecalis, Mueller-Hinton broth, 18-22 hours at 35° C.
Description: as §1, §2

[1] = target: E. coli Uridine-diphosphate-N-acetvimuramoyl: L-alanine lipase, MurC (Escherichia coli, UniProt P17952); test: Inhibitory activity against MurC (E. coli); type: biochemical; conditions: (E) E. coli enzyme; for IC50: read-out: MurC IC50 (converted)
Chain of E. coli Uridine-diphosphate-N-acetvimuramoyl: L-alanine lipase, MurC (P17952 whole entry): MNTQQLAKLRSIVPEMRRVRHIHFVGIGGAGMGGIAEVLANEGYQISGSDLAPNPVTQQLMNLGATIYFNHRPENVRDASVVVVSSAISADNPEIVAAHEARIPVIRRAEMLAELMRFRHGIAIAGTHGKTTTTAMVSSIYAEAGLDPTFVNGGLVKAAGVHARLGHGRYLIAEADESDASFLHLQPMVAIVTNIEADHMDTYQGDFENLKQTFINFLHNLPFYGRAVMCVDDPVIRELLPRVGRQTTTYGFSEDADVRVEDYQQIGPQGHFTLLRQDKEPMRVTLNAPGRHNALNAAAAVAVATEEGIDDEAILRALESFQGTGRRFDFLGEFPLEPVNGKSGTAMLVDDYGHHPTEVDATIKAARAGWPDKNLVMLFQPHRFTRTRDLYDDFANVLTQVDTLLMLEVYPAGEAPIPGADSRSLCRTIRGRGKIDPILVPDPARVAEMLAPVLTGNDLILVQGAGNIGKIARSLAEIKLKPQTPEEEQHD
Description: S. aureus and E. coli Uridine-diphosphate-N-acetvimuramoyl: L-alanine lipase, MurC
The buffer is prepared from aqueous reagents with the following final concentrations: 83 mM Tris/HCl (pH 8.0), 50 mM MgC12, and 2 mM ATP.
(§3) Preparation of Enzyme Solution:
A 1 mg/mL stock solution of MurC is prepared in a buffer consisting of 20 mM Tris/HCl (pH 8.5) with 2.5 μM BME. The stock solution is further diluted with the buffer to give a final enzyme concentration of 100 μg/mL for the E. coli stock solution and 70 μg/mL for the S. aureus stock solution.
(§4) Preparation of Test Compound Solutions:
(§5) All test solutions are prepared in DMSO as 10 mg/mL, then diluted with 50 mM Tris/HCl (pH 8.5) to 100 μg/mL.
(§6) Preparation of Stop Solution:
The stop solution is prepared by stirring 1 part 4.2% ammonium molydbate in 4N HCl with 2 parts 0.045% malachite green for 30 min.
In this evaluation, the inhibitory activity of a test compound against MurC, the enzyme which catalyzes the third step of bacterial cell wall bioxynthesis is determined. Experiments are performed by adding 2.5 μl buffer, 2.5 μl 0.5M NH4SO2, 5 μl 2 μM L-Ala, 5 μl enzyme solution and 6.5 μl test compound solution to each well in a 96-well microplate. After a pre-incubation period of 10 mins. at 23° C., 3.75 μl of a 0.75 μM solution of UDP-MurNac is added to each well. Following an incubation period of 10 mins. at 37° C., 210 μl stop solution and 50 μl of a 34% w/v sodium citrate solution are added and color is allowed to develop for 10 mins. at 23° C. (Lanzetta et al., Analytical Biochemistry, 1979, 95) Optical density readings are taken at 660 nm using a Molecular Devices Spectra Max 250 with Soft Max software. Controls are performed using the same procedure and omitting the addition of UDP-MurNac.
Using these values the IC50 is determined by linear regression analysis.

[2] = target: E. coli Enopyruvyl-UPD-N-acetylglucosamine reductase, Mur B (Escherichia coli, UniProt P08373); test: biochemical; conditions: (E) E. coli enzyme; for IC50: read-out: MurB IC50 (converted)
Chain of E. coli Enopyruvyl-UPD-N-acetylglucosamine reductase, Mur B (P08373 whole entry): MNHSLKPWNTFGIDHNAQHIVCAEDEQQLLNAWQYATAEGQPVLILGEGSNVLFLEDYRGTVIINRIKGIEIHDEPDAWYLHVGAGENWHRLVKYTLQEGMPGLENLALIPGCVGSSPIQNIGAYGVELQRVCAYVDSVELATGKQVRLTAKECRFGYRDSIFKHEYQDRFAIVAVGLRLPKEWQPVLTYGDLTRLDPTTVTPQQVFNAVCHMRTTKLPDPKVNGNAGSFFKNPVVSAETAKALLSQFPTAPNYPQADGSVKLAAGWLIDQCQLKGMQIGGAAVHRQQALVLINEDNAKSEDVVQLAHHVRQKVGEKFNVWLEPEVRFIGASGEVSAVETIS
Description: S. aureus and E. coli Enopyruvyl-UPD-N-acetylglucosamine reductase, Mur B
Preparation of Tris/BME buffer:
Dilute 17.5 uL of aqueous 5 mM BME (2-mercaptoethanol) to 50 mL with 50 mM Tris/HCl (pH 8.0).
as §3
Dilute aqueous MurB stock solution (0.94 mg/mL) with 200 parts 50 mM Tris/2-BME buffer.
Synthesis of Substrate for MurB (MurA Product EP-UDP-GluNAc):
A mixture of 13 mg UDP-N-acetylglucosamine and 5.5 mg phosphoenolpyruvate are dissolved in 10 mL Tris/BME buffer forming 2 mM concentrations of each reagent in solution.
Preparation of Assay Buffer:
The assay buffer is prepared in water from reagents with the following final concentrations: 100 mM Tris/HCl (pH 8.0), 200 μM NADPH, 100 μM MurB substrate, 10 μM 2-mercaptoethanol, and 10 μM KCl.
Experiments are performed by adding 20 μL of a solution of test compound in a mixture of dimethylsulfoxide and water and 30 μL of enzyme solution to a well. After a pre-incubation period of 20 mins. at 23° C., 50 μL of Tris/BME buffer and 100 μL of assay buffer are added. […] Controls are performed using the same procedure and employing 20 μL of a blank dimethylsulfonide and solvent mixture in place of the test compound solution.
Using these values, the IC50 for each test compound is determined by linear regression analysis.

[3] = target: E. coli UDP-N-acetylglucosamine enolpyruvoyl transferase, MurA (Escherichia coli, UniProt P0A749); test: biochemical; conditions: (E) E. coli enzyme
Chain of E. coli UDP-N-acetylglucosamine enolpyruvoyl transferase, MurA (P0A749 whole entry): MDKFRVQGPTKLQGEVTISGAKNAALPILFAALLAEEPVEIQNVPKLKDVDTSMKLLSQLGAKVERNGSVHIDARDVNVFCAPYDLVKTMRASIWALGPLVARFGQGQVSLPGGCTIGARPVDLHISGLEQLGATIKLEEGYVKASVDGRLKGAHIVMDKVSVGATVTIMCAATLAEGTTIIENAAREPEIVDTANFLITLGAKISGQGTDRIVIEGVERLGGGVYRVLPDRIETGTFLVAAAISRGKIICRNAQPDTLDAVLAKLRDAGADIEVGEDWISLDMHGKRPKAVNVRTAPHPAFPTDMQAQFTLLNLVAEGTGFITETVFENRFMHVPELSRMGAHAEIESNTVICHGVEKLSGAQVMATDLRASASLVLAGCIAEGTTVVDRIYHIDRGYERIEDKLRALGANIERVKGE
Description: Evaluation of the Inhibitory Activity of Test Compounds Against Enzymes which Catalyze Bacterial Cell Wall Biosynthesis
S. aureus and E. coli UDP-N-acetylglucosamine enolpyruvoyl transferase, MurA
as §3
The enzyme solution is prepared by admixing the following: 50 mM Tris/HCl pH 8.0, […] 1 M Tris, 5 mM DTT, […] 1 M DTT, 20% Glycerol 4 ml 50% Glycerol, add water to 10 ml.
as §6
A procedure similar to that described by C. […] Experiments are performed by adding a solution of test compound (in a mixture of dimethylsulfoxide and water) and an enzyme solution to a well. After a pre-incubation period of 10 mintues at 37° C., Tris/BME buffer and assay buffer are added. A start point optical density (OD0) reading is taken at 340 nm immediately following the addition of assay buffer. After incubation for 1 hr at 37° C., the stop solution is added and the color is allowed to develop for 30 minutes.

[4] = target: E. coli Uridine-diphosphate-N-acetylmuramoyl-L-alanine: D-glutamate liease, MurD (Escherichia coli, UniProt P14900); test: biochemical; conditions: (E) E. coli enzyme
Chain of E. coli Uridine-diphosphate-N-acetylmuramoyl-L-alanine: D-glutamate liease, MurD (P14900 whole entry): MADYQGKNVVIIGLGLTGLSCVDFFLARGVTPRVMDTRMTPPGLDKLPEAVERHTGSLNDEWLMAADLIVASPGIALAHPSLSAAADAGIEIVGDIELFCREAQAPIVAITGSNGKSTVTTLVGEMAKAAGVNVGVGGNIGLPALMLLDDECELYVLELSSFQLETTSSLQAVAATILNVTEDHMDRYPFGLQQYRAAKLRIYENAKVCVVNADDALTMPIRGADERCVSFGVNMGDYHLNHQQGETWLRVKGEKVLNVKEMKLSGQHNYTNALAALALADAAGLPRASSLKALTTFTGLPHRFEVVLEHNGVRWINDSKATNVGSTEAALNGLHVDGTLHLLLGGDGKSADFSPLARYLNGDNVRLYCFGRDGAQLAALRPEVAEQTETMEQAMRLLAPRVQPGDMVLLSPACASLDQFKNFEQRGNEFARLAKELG
Description: S. aureus and E. coli Uridine-diphosphate-N-acetylmuramoyl-L-alanine: D-glutamate liease, MurD
The buffer is prepared from aqueous reagents with the following final concentrations: 83 mM Tris/HCl (pH 8.0), 50 mM MgCl2, and 2 mM ATP.
as §3, §4, §5, §6
In this evaluation, the inhibitory activity of a test compound against MurD, the enzyme which catalyzes the fourth step of bacterial cell wall biosynthesis is determined.

[5] = S. aureus GC 1131, read-out: MIC S. aureus GC 1131
[6] = S. aureus GC 4543, read-out: MIC S. aureus GC 4543
[7] = E. faecalis GC 2242, read-out: MIC E. faecalis GC 2242
[8] = E. faecalis GC 4555, read-out: MIC E. faecalis GC 4555

Compound | MIC (Streptococci) | MIC (staphylococci; [5]) | MIC (staphylococci; [6]) | MIC (enterococci; [7]) | MIC (enterococci; [8]) | IC50 [1] | IC50 [2] | IC50 [3] | IC50 [4] | MurC IC50 [1] | MurB IC50 [2] | MurD IC50 [4] | MurA IC50 [3]
O=C1O/C(=C\c2cc(C(F)(F)F)ccc2F)C(O)=C1c1cccc(-c2ccccc2)c1 [Example 121] | 0.5 µg/mL (≈ 1.17 µM) | 4 µg/mL (≈ 9.38 µM) | 2 µg/mL (≈ 4.69 µM) | 8 µg/mL (≈ 18.8 µM) | 16 µg/mL (≈ 37.5 µM) | 21.1 µM | 16.4 µM | 21.1 µM |  |  |  |  | 
O=C1O/C(=C\c2cc(C(F)(F)F)ccc2F)C(O)=C1c1ccc(-c2ccccc2)cc1 [Example 118] | 4 µg/mL (≈ 9.38 µM) | 16 µg/mL (≈ 37.5 µM) | 16 µg/mL (≈ 37.5 µM) | 16 µg/mL (≈ 37.5 µM) | 32 µg/mL (≈ 75.1 µM) | 44.6 µM | 42.2 µM | 35.2 µM | > 58.6 µM |  |  |  | 
O=C1O/C(=C\c2ccc3ccccc3c2)C(O)=C1c1cccc(C(F)(F)F)c1 [Example 8] | 0.25 µg/mL (≈ 0.654 µM) | 8 µg/mL (≈ 20.9 µM) | 8 µg/mL (≈ 20.9 µM) | 4 µg/mL (≈ 10.5 µM) | 16 µg/mL (≈ 41.8 µM) |  |  |  |  | 6 (E) μg/mL | 11 (E) μg/mL |  | 
O=C1O/C(=C\c2cc(C(F)(F)F)ccc2Cl)C(O)=C1c1ccc(-c2ccccc2)c(F)c1 [Example 126] | 0.25 µg/mL (≈ 0.543 µM) | 1 µg/mL (≈ 2.17 µM) | 1 µg/mL (≈ 2.17 µM) | 1 µg/mL (≈ 2.17 µM) | 4 µg/mL (≈ 8.68 µM) |  |  |  |  | 5 (E) μg/mL | 1 (E) μg/mL | 9 (E) μg/mL | 3 (E) μg/mL
CC(C)(C)c1ccc(-c2ccc(C3=C(O)/C(=C/c4cccc(C(F)(F)F)c4Cl)OC3=O)cc2)cc1 [Example 116] | < 0.125 µg/mL | 8 µg/mL (≈ 16 µM) | 8 µg/mL (≈ 16 µM) | 4 µg/mL (≈ 8.02 µM) | 4 µg/mL (≈ 8.02 µM) | > 50.1 µM | 8.02 µM | 6.01 µM | > 50.1 µM |  |  |  | 
O=C1O/C(=C\c2cccc(C(F)(F)F)c2Cl)C(O)=C1c1ccc(-c2ccccc2)cc1 [Example 113] | 0.25 µg/mL (≈ 0.565 µM) | 1 µg/mL (≈ 2.26 µM) | 2 µg/mL (≈ 4.52 µM) | 1 µg/mL (≈ 2.26 µM) | 4 µg/mL (≈ 9.03 µM) | > 56.5 µM | 6.77 µM | 9.03 µM | > 56.5 µM |  |  |  | 

From patent US7495027B2, “3-aryl-4-hydroxyfuranone compounds and the human and animal health use thereof” (Wyeth, priority 2003, dated 2009)
